These results are taken from patent US20240226057A1, “NEW USE OF MONENSIN” (MAST PHARMA AB, priority 2021, published 2024).

Data set [1] relates to Bone marrow-derived mast cells (BMMCs). As to the kind of experiment: BMMC viability, screening and kinetic analysis (Presto Blue / resazurin reduction). The settings on record: BMMCs, Presto Blue. Background: Resazurin is reduced to fluorescent resorufin, in cell work by metabolically active cells.
In data set [2] the test system is human fibroblast cells (HFL-1). Briefly: Cytotoxicity against human fibroblast cells (PrestoBlue). The settings on record: 10 μM, 48 h.
Data set [3] relates to Bone marrow-derived mast cells (BMMCs). As to the kind of experiment: Trypan blue positivity of treated mast cells. It is filed as cell-based, mouse.
Data set [4] deals with Caspase 3 & 7. As to the kind of experiment: Caspase 3 & 7 activation in mast cells.
Data set [5] deals with mouse bone-marrow-derived mast cells (BMMCs). As to the kind of experiment: Annexin V/DRAQ7 cell death assessment in BMMCs. The format is cell-based. The settings on record: bafilomycin A 20 nM in combination with monensin, BMMCs. On the procedure:
(§1) To assess cell death, cells were stained with Annexin V and either DRAQ7™ or Via-Probe™ Red Nucleic Acid Stain and analyzed by flow cytometry. To probe pH in acidic organelles, cells were incubated with LysoSensor Blue DND-167, followed by flow cytometry. The relative intracellular pH changes were assessed using the cell-permeable pH-sensitive fluorescent indicator (BCFL-AM). Intracellular calcium changes were assessed using Fluo-4/AM.
To analyze the mechanism by which monensin acts on mast cells, Annexin V/DRAQ7 staining was first adopted to assess the type of cell death induced by monensin, the gating is shown in FIG. 2A. […] Necrotic/late apoptotic (Annexin V^+/DRAQ7^+) cells were also seen, but to a lesser extent (right panel).
BMMCs were treated with 1 μM monensin for 12 and 24 h, followed by Annexin V/DRAQ7 staining to measure cell death. MCs were gated into cells having high and low maturity, as assessed by SSC analysis for granularity (A). The right panels depict the quantification of apoptotic (Annexin V^+/DRAQ7^−) and necrotic (Annexin V^+/DRAQ7^+) cell death in the respective populations (n=3). (B) BMMCs (0.5×10^6 cells) were developed from WT (FIG. 4B) or serglycin^−/− (SG^−/−) mice (data not shown) and were treated with monensin 0-10 μM for 24 h, followed by cell death assessment (Annexin V/DRAQ7 staining). BMMCs (C; 0.5×10^6 cells) or human skin MCs (0.1×10^6 cells; D) were treated with monensin or bafilomycin A 0-10 μM for 30 min, followed by staining with LysoSensor Blue DND-167 (a lysosome probe sensitive to decreased pH) (n=4). BMMCs (0.5×10^6 cells) were treated with either monensin or bafilomycin A (20 nM) alone or in combination (E), followed by measurement of cell death (Annexin V/DRAQ7 staining). (F) BMMCs were treated with monensin or bafilomycin A for 4 and 24 h, followed by assessment of cytosolic pH (n=2). […] To further assess the impact of the secretory granules on monensin-induced cell death, it was evaluated whether the absence of serglycin, a granule-restricted proteoglycan, affects the response to monensin. Both WT and serglycin^−/− BMMCs were sensitive to cell death induced by monensin.

The test system of data set [6] is BMMCs. As to the kind of experiment: Granule acidity, LysoSensor Blue DND-167 staining of BMMCs. The format is cell-based, mouse. The settings on record: 0-10 μM for 30 min. On the procedure:
as §1
BMMCs were treated with 1 μM monensin for 12 and 24 h, followed by Annexin V/DRAQ7 staining to measure cell death. MCs were gated into cells having high and low maturity, as assessed by SSC analysis for granularity (A). The right panels depict the quantification of apoptotic (Annexin V^+/DRAQ7^−) and necrotic (Annexin V^+/DRAQ7^+) cell death in the respective populations (n=3). (B) BMMCs (0.5×10^6 cells) were developed from WT (FIG. 4B) or serglycin^−/− (SG^−/−) mice (data not shown) and were treated with monensin 0-10 μM for 24 h, followed by cell death assessment (Annexin V/DRAQ7 staining). […] To further assess the impact of the secretory granules on monensin-induced cell death, it was evaluated whether the absence of serglycin, a granule-restricted proteoglycan, affects the response to monensin. […]

Data set [7] has as its system mMCP-6. As to the kind of experiment: Translocation of granule protease mMCP-6 into the cytosolic fraction. The format is cell-based.
Data set [8] has as its system Bone marrow-derived mast cells (BMMCs). As to conditions: mouse.

Read-outs that look alike come from different tables or passages of the source.

For `CC(=O)OC[C@H]1O[C@@H]([S-])[C@H](OC(C)=O)[C@@H](OC(C)=O)[C@@H]1OC(C)=O.CCP(CC)CC.[Au+]` [Auranofin], the “Viability % (1 μM)” value in data set [1] (1 μM) is on record as 83%. Further, in data set [1] (10 μM, 24 hours), the “Viability % (10 μM)” value is 1%. Besides, the “Cytotoxicity at 10 μM on HSFib (HFL-1) cells” value in data set [2] is on record as “exhibited cytotoxicity”. In addition, in data set [3], the “Viability % (TB) (10 μM)” value worked out at 100%. In data set [4], the “Caspase 3 & 7 activation” value is on record as “+” and the “Caspase-3 & 7 activation” value is “caspase-3 & 7 positivity”.

As to `CO/C1=C\C(C)=C\[C@@H](C)[C@@H](O)[C@@H](C)C/C(C)=C/C=C/[C@H](OC)[C@@H]([C@@H](C)[C@@H](O)[C@H](C)[C@@]2(O)C[C@@H](O)[C@H](C)[C@@H](C(C)C)O2)OC1=O` [Bafilomycin A], the “Extent of cell death induced by monensin when combined with bafilomycin A” value in data set [5] is given as “significant reduction”. In data set [6], the “LysoSensor Blue DND-167 staining / granule acidity, BMMCs” value is “profound reduction”. Further, the “Monensin-induced translocation of mMCP-6 to the cytosol in cells treated with bafilomycin A” value in data set [7] is on record as “abrogated”.

For `CCN(CC)CCOc1ccc(C(=C(Cl)c2ccccc2)c2ccccc2)cc1` [Clomiphene], in data set [3], the “Viability % (TB) (10 μM)” value worked out at 22%. In addition, in data set [4], the “Caspase 3 & 7 activation” value is “−” and the “Caspase-3 & 7 activation” value was “absence of a positive signal”. The “Viability % (1 μM)” value in data set [8] (1 µM) came to 99%. In addition, the “Viability % (10 μM)” value in data set [8] (24 h, 10 µM) was determined as 76%.
